Measurements from US20040186081A1, “Naaladase inhibitors for treating opioid tolerance” (Guilford Pharmaceuticals Inc., priority 2003, published 2004).

Each molecule was assayed against NAALADase (Homo sapiens, UniProt Q04609) (assay: In vitro inhibition of NAALADase activity). Details: not given.
Type: biochemical

Sequence of NAALADase (Q04609 whole entry): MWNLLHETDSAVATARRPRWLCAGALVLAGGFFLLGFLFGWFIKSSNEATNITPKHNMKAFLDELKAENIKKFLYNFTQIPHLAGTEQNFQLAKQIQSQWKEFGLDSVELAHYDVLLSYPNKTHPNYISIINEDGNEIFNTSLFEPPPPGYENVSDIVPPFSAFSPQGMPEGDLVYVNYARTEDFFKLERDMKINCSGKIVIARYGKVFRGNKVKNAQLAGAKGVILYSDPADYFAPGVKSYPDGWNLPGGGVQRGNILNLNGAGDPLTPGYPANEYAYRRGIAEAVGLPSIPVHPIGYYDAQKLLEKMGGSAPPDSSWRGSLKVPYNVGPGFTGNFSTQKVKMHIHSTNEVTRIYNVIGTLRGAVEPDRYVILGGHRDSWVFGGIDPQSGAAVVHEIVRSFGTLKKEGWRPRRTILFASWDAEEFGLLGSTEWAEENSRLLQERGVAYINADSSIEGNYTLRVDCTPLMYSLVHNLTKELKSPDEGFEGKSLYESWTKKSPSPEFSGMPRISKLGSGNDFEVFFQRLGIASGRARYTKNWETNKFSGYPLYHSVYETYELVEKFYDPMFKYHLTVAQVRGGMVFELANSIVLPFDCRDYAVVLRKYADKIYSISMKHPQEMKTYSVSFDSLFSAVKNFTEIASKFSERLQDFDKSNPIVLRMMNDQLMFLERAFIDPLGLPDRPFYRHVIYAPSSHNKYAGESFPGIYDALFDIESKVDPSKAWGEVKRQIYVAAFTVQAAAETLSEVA

| SMILES | Ki [nM] |
| --- | --- |
| O=C(O)c1ccc(C(=O)O)c(Sc2ccccc2C(=O)O)c1 [2-[(2-carboxyphenyl)thio]-1,4-benzenedicarboxylic acid] | 572 |
| O=C(O)c1cc(OCCCS)cc(C(=O)O)c1 [5-(3-mercaptopropoxy)-1,3-benzenedicarboxylic acid] | 3300 |
| O=C(O)c1ccc(C(=O)c2ccc(Oc3ccc(C(=O)O)c(C(=O)O)c3)cc2)c(C(=O)O)c1 [4-[4-(2,4-dicarboxybenzoyl)phenoxy]-1,2-benzenedicarboxylic acid] | 1170 |
| O=C(O)c1ccc(OCCCSSCCCOc2ccc(C(=O)O)cc2C(=O)O)c(C(=O)O)c1 [4-[3-[[3-(2,4-dicarboxyphenoxy)-propyl]-dithio]propoxy]-1,3-benzenedicarboxylic acid] | 3750 |
| O=C(O)c1ccc(CCS)c(C(=O)O)c1 [4-(2-mercaptoethyl)-1,3-benzenedicarboxylic acid] | 116 |

Same assay, conditions: read-out: IC50

| SMILES | IC50 [nM] |
| --- | --- |
| O=C(O)c1cccc(CC(CCCS)C(=O)O)c1-c1ccccc1 (centres unmarked) [6-(2-carboxy-5-mercaptopentyl)-[1,1′-biphenyl]-2-carboxylic acid] | 70 |
| O=C(O)c1ccccc1COc1cccc(CCS)c1C(=O)O [2-[(2-carboxyphenyl)methoxy]-6-(2-mercaptoethyl)-benzoic acid] | 11.5 |
| O=C(O)C(CCCS)Cc1cccc(Oc2ccccc2)c1 (stereo not drawn) [alpha-(3-mercaptopropyl)-3-phenoxy-benzenepropanoic acid] | 308 |
| O=C(CCCCSCCCC(Cc1cccc(C(=O)O)c1)C(=O)O)NO (centres unmarked) [3-[2-Carboxy-5-(4-hydroxycarbamoyl-butylsulfanyl)-pentyl]-benzoic acid] | 7580 |
| O=C(CC(Cc1cccc(C(=O)O)c1)C(=O)O)NO (centres unmarked) [3-(2-Carboxy-3-hydroxycarbamoyl-propyl)-benzoic acid] | 693 |
| O=C(O)c1ccc(COc2cccc(CCS)c2C(=O)O)cc1 [2-[(4-carboxyphenyl)methoxy]-6-(2-mercaptoethyl)-benzoic acid] | 4 |
| O=C(O)c1ccccc1CS [2-(mercaptomethyl)-benzoic acid] | ≥ 100000 |
| O=C(CSCCc1cccc(OCc2ccc(C(=O)O)cc2)c1C(=O)O)NO | 14000 |
| O=C(CCC(Cc1cccc(C(=O)O)c1)C(=O)O)NO (centres unmarked) [3-(2-Carboxy-4-hydroxycarbamoyl-butyl)-benzoic acid] | 47.8 |
| COC(=O)c1cccc(-c2cccc(OCC(=O)NO)c2C(=O)OC)c1 [3-Hydroxycarbamoylmethoxy-biphenyl-2,3′-dicarboxylic acid dimethyl ester] | ≥ 100000 |
| O=C(O)C(CCCS)Cc1ccc(-c2ccccc2)cc1 (stereo not drawn) [alpha-(3-mercaptopropyl)-4-phenyl-benzenepropanoic acid] | 229 |
| O=C(NO)c1ccc(O)c(C(=O)O)c1 [6,N-Dihydroxy-isophthalamic acid] | ≥ 100000 |
| O=C(O)C(CCCS)Cc1ccccc1Cl (stereo not drawn) [2-chloro-alpha-(3-mercaptopropyl)-benzenepropanoic acid] | 1350 |
| CC(C)C(SCCCC(Cc1cccc(C(=O)O)c1)C(=O)O)C(=O)NO (centres unmarked) [3-[2-Carboxy-5-(1-hydroxycarbamoyl-2-methyl-propylsulfanyl)-pentyl]-benzoic acid] | 2800 |
| O=C(O)c1c(CCS)cccc1OCc1ccccc1Cl [2-[(2-chlorophenyl)methoxy]-6-(2-mercaptoethyl)-benzoic acid] | 160 |
| O=C(O)c1ccccc1OC(CCCS)C(=O)O (centres unmarked) [2-(1-carboxy-4-mercaptobutoxy)-benzoic acid] | 4600 |
| O=C(O)c1cccc(CC(CCCS)C(=O)O)c1Cl (stereo not drawn) [3-carboxy-2-chloro-alpha-(3-mercaptopropyl)-benzenepropanoic acid] | 1200 |
| O=C(O)C(CCCS)Cc1cccc(C(F)(F)F)c1 (stereo not drawn) [alpha-(3-mercaptopropyl)-3-(trifluoromethyl)-benzenepropanoic acid] | 4000 |
| O=C(CCCSCC(Cc1cccc(C(=O)O)c1)C(=O)O)NO (centres unmarked) [3-[2-Carboxy-3-(3-hydroxycarbamoyl-propylsulfanyl)-propyl]-benzoic acid] | 6050 |
| COc1cc(C(=O)O)ccc1COc1cccc(CCS)c1C(=O)O [2-[(4-carboxy-2-methoxyphenyl)methoxy]-6-(2-mercaptoethyl)-benzoic acid] | 7 |

| SMILES | IC50 [nM] |
| --- | --- |
| O=C(O)C(CCCS)Cc1ccc(O)cc1 (stereo not drawn) [4-hydroxy-alpha-(3-mercaptopropyl)-benzenepropanoic acid] | 2140 |
| O=C(O)c1ccc(CC(CCCS)C(=O)O)cc1Br (stereo not drawn) [3-bromo-4-carboxy-alpha-(3-mercaptopropyl)-benzenepropanoic acid] | 146 |
| COc1cc(COc2cccc(CCS)c2C(=O)O)ccc1C(=O)O [2-[(4-carboxy-3-methoxyphenyl)methoxy]-6-(2-mercaptoethyl)-benzoic acid] | 10.5 |
| O=C(COc1cc(C(=O)O)cc(C(=O)O)c1)NO [5-Hydroxycarbamoylmethoxy-isophthalic acid] | 14800 |
| O=C(O)c1ccc(Br)c(CC(CCCS)C(=O)O)c1 (stereo not drawn) [2-bromo-5-carboxy-alpha-(3-mercaptopropyl)-benzenepropanoic acid] | 3.33 |
| O=C(O)c1cc(OCc2ccccc2)ccc1CCS [2-(2-mercaptoethyl)-5-(phenylmethoxy)-benzoic acid] | 380 |
| O=C(O)c1c(CCS)cccc1OCc1ccccc1 [2-(2-mercaptoethyl)-6-(phenylmethoxy)-benzoic acid] | 11.5 |
| O=C(O)C(CCCS)Cc1cccc(-c2ccccc2)c1 (stereo not drawn) [alpha-(3-mercaptopropyl)-3-phenyl-benzenepropanoic acid] | 181 |
| O=C(O)c1cccc(CC(CCCS)C(=O)O)c1 (single isomer, unassigned; (+)) [(+)-3-carboxy-alpha-(3-mercaptopropyl)-benzenepropanoic acid] | 7 |
| O=C(NO)c1cc(OCC(F)(F)F)ccc1OCC(F)(F)F [N-Hydroxy-2,5-bis-(2,2,2-trifluoro-ethoxy)-benzamide] | ≥ 100000 |
| CC(C)(C)CCOc1cccc(CCS)c1C(=O)O [2-(3,3-dimethylbutoxy)-6-(2-mercaptoethyl)-benzoic acid] | 2580 |
| O=C(O)C(CCCS)Cc1ccc2ccccc2c1 (stereo not drawn) [alpha-(3-mercaptopropyl)-2-naphthalenepropanoic acid] | 1130 |
| O=C(COc1ccccc1C(=O)O)NO [2-Hydroxycarbamoylmethoxy-benzoic acid] | ≥ 100000 |
| O=C(O)c1ccc(COc2cccc(CCS)c2C(=O)O)cc1Br [2-[(3-bromo-4-carboxyphenyl)methoxy]-6-(2-mercaptoethyl)-benzoic acid] | 0.098 |
| CC(=O)Nc1cccc(OC(CCCS)C(=O)O)c1 (centres unmarked) [2-[3-(acetylamino)phenoxy]-5-mercapto-pentanoic acid] | 27700 |
| O=C(CCc1cccc(OCc2cccc(C(=O)O)c2)c1)NO [3-[3-(2-Hydroxycarbamoyl-ethyl)-phenoxymethyl]-benzoic acid] | 92700 |
| O=C(CSCC(Cc1cccc(C(=O)O)c1)C(=O)O)NO (centres unmarked) [3-(2-Carboxy-3-hydroxycarbamoylmethyl-sulfanylpropyl)-benzoic acid] | 3070 |
| O=C(O)c1cccc(COc2ccc(CCS)c(C(=O)O)c2)c1 [5-[(3-carboxyphenyl)methoxy]-2-(2-mercaptoethyl)-benzoic acid] | 84.5 |
| O=C(CCSCCCC(Cc1cccc(C(=O)O)c1)C(=O)O)NO (centres unmarked) [3-[2-Carboxy-5-(2-hydroxycarbamoyl-ethylsulfanyl)-pentyl]-benzoic acid] | 113 |
